Measured values from US20080167532A1, “ASSESSING CANCER TREATMENT RESPONSIVENESS” (Mayo Foundation for Medical Education and Research, priority 2006, published 2008).
“Also recorded” adds a separate entry of the source. Like-named read-outs stand apart in the source and are kept apart here.

Experiments:
PPARγ = biological target: T1, PPARγ (Homo sapiens, UniProt P37231); assay: PPRE3-tk-luc reporter (dual luciferase) assay in DRO cells; format: cell-based; design: endogenous in cells; host or cells: DRO90-1 (DRO) human anaplastic thyroid carcinoma cells
T1 sequence (P37231 1-505): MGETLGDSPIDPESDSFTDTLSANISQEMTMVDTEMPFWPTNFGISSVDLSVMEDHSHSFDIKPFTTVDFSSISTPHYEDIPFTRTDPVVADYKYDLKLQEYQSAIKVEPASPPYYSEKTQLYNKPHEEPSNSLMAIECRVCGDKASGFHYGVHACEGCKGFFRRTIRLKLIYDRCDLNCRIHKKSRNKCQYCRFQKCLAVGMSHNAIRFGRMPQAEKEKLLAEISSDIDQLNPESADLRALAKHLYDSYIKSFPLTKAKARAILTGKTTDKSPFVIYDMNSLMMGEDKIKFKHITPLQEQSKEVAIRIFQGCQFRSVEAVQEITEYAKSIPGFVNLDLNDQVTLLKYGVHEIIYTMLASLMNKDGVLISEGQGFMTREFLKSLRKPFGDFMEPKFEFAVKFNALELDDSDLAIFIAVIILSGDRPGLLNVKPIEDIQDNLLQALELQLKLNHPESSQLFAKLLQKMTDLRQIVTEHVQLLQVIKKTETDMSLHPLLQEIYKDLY
Protocol: The effects of PPARγ agonists on DRO cells were investigated. […] Firefly luciferase activity was normalized to renilla […] activity (RLU) and plotted as mean values ±S.D. (FIG. 3A).
Cells were transfected with siRNA for 72 hours followed by transfected with a PPRE3-tk-luc reporter and treatment with 10 nM RS5444 for 24 hours. […] Cotransfection with renilla luciferase allowed for normalization to relative light units (RLU).
Cells were plated in 6-well culture plates at initial concentrations of 2×10^5 cells/well. After overnight incubation, cells were transfected with PPRE/luc and CMV/renilla luciferase plasmid using Lipofectamine 2000 (Invitrogen), and after 24 hours, cells were treated with PPAR-γ agonists at indicated concentrations. After 24 hours of drug treatments, cells were washed with PBS and lysed in 1× reporter lysis buffer (Roche), and luciferase activity was measured with a Dual Luciferase assay kit (Promega, Madison Wis.) with a luminometer (Veritas/Turner Biosystems). The enzyme activity was normalized for efficiency of transfection on the basis of renilla activity levels and reported as relative light units (RLU).

DRO cells [1] = assay: Western blot of RhoB, RhoA, p21, cyclin E polypeptides in DRO cells; format: cell-based, human
Protocol: RhoB and p21^WAF1/CIP1 polypeptide expression also was examined in ATC cells to determine the time course of induction of each polypeptide following stimulation with a PPARγ agonist (FIG. 6). […]. Polypeptide lysates were prepared and examined for RhoB, RhoA and β-actin expression. […]; FIG. 6A).
The time course for induction of RhoB and p21^WAF1/CIP1 was determined using Western blotting.
(§1) DRO90-1 (DRO) and ARO81 (ARO) cells were derived from primary cultures of human anaplastic thyroid carcinoma tumors that were obtained from Dr. G. J. Juillard (University of California-Los Angeles, Los Angeles, Calif.), and KTC-2 and KTC3 cells were obtained from Dr. Junichi Kurebayashi (Podtcheko et al., J. Clin. Endocrinol. Metab., 88:1889-1896 (2003) and Pushkarev et al., Molecular mechanisms of the Effects of Low Concentrations of Taxol in Anaplastic Thyroid Cancer Cells. Endocrinology: en. 2004-0127 (2004)). Cells were cultured in RPMI 1640 medium (Cellgro, Herndon Va.) supplemented with 10% charcoal-stripped fetal bovine serum (Hyclone), non-essential amino acids, sodium pyruvate, and penicillin-streptomycin-amphotericin B at 37° C. in a humidified atmosphere with 5% CO^2. Charcoal-stripped serum was used to exclude endogenous PPAR ligands contained in serum. For proliferation studies, cells were plated in triplicate in 12-well culture plates at initial concentrations of 2×10^4 cells/well. After overnight incubation, cells were treated with 10 nM RS5444 or DMSO diluent (Sigma) for 6 days with medium, and drug changed every 48 hours. After 6 days, cells were washed with PBS (Cellgro), trypsinized, and counted by Beckman Coulter Counter (Beckman Instruments, Fullerton Calif.). For morphology studies, cells were plated in 12 well plates at initial concentrations of 2.5×10^4 cells/well. Cells were treated with either DMSO or 10 nM RS5444 (24 hours). After treatment, phase images were obtained on an inverted microscope. For real time PCR studies, cells were plated in 60 mm plates at 50% confluence and treated with 10 nM RS5444 for indicated incubation periods. […].
Cells were collected and lysed in RIPA buffer containing 50 mM Tris, 5 mM EDTA, 150 mM NaCl, 0.1% SDS, 0.5% Deoxycholate, 1% NP40, and protease inhibitor cocktail (Roche) followed by centrifugation. Excised tumor tissues were lysed in 50 mM Tris pH 8.0+1% SDS. Collected supernatants were, analyzed for protein concentration using Pierce's BCA assay, with 25 μg protein loaded per gel lane (Invitrogen) with later transfer to Immobilon-P membranes. The membranes were hybridized with antibodies (Santa Cruz, Cell Signaling, Sigma-Aldrich, St. Louis Mo.) as indicated overnight at 4° C. followed by treatment with species-specific horseradish peroxidase IgG (Jackson labs) for 45 minutes at room temperature. Detection was performed using Supersignal West Pico chemoluminescence kit (Pierce). Quantification of bands was performed in triplicate using Image Quant 5.2 (Molecular Dynamics, Sunnyvale Calif.).

DRO cells [2] = assay: DRO cell proliferation (cell counts over six days); format: cell-based, human; conditions: for IC50: Homo sapiens
Protocol: . Cells were treated every 48 hours over six days. Cell numbers were counted and data were plotted as mean values ±S.D. The thiazolidinediones inhibited cell proliferation of DRO cells in a dose responsive fashion (FIG. 3B). […]. The EC50 concentrations were in close agreement with the IC50 concentrations for each compound (FIG. 3B).
. […] Cell numbers were counted and data were plotted as mean values ±S.D. (FIG. 9D).
as §1, with “[…].” for “For morphology studies, cells were plated in 12 well plates at initial concentrations of 2.5×10^4 cells/well.”
Cells were either plated in triplicate at 7.5×10^4 cells/mL in 6-well plates or 2×10^4 cells/well in 12-well plates, allowed to adhere overnight, and then transfected for 24 to 72 hours with 2 to 5 μg of either scrambled, p21^WAF1/CIP1 (1022539), RhoB (SI00058933) or PPAR-γ-specific siRNA duplexes (Qiagen Valencia, Calif.) using RNAiFect reagent (Qiagen). The DNA target sequence for PPAR-γ was 5′-[…]-3′. After transfection, cells in the 6-well plates were treated with either DMSO diluent or 10 nM RS5444 for 24 hours and then analyzed by either real time PCR or immunoblotting. Cells in the 12-well plates were exposed for 6 days with medium, and drug changed every 48 hours. After 6 days, cells were washed with PBS (Cellgro), trypsinized, and counted by Beckman Coulter Counter.

[3] = DRO cells treated every 48 hours over six days, read-out: IC50, concentration at which 50% of cell proliferation was inhibited

## O=C(Nc1ccccc1)c1cc([N+](=O)[O-])ccc1Cl [GW9662]
PPARγ; 10 μM GW9662 followed by 10 nM RS5444 one hour later
  effect on RS5444 inducible luciferase activity: complete loss of RS5444 inducible luciferase activity
PPARγ; DRO cells pretreated 5 minutes with 10 μM GW9662 before 10 nM RS5444, 1 μM rosiglitazone or 10 μM troglitazone
  effect on agonist activation of PPARγ-induced luciferase activity: abolished
DRO cells [1]; GW9662 plus 10 nM RS5444, 24 hours
  effect of antagonist on RS5444-induced RhoB polypeptide expression: abolished; also recorded: blocked the ability of RS5444 to elevate RhoB polypeptide expression
DRO cells [2]; DRO cells pretreated one hour with 10 μM GW9662 before 10 nM RS5444, 1 μM rosiglitazone or 10 μM troglitazone, every 48 hours over six days
  effect on growth inhibition by TZDs: no longer growth inhibited

## COC(=O)[C@H](CCSC)NC(=O)c1ccc(NC[C@@H](N)CS)cc1-c1ccccc1 [FTI-277]
DRO cells [1]; 24 hours, 10 nM RS5444, 1 ng/mL FK-228, 10 μM FTI-277
  RhoB and p21 expression (Western blot): upregulation of both RhoB and p21 expression
DRO cells [2]; DRO cells transfected with RhoB or scrambled siRNA, treated every 48 hours for 6 days
  inhibition of cell proliferation with RhoB vs scrambled siRNA: dependent upon the upregulation of RhoB polypeptide to inhibit cell proliferation

## Cc1c(C)c2c(c(C)c1O)CCC(C)(COc1ccc(CC3SC(=O)NC3=O)cc1)O2 (stereo not drawn) [troglitazone]
DRO cells [2]; DRO cells treated every 48 hours for six days (FIG. 3B legend), read-out: IC50, DRO cell number
  IC50: ~1400 nM
DRO cells [2]; [3]
  IC50: ~1410 nM

## CN(CCOc1ccc(CC2SC(=O)NC2=O)cc1)c1ccccn1 (stereo not drawn) [rosiglitazone]
DRO cells [2]; [3]
  IC50: ~75 nM
